Source: ChEMBL document CHEMBL5143732 (J Med Chem, 2022)
Values after ≈ are worked out from the molar mass of the structure shown. Active and inactive are the calls of the source. The rule behind the calls is not given here.

What was measured:
[1] = Elimination half life in ICR (CD-1) mouse at 1 mg/kg, iv measured upto 24 hrs; assay type: ADME, organism-based; conditions: in vivo, read-out: beta t1/2 (converted)
[2] = AUClast in ICR (CD-1) mouse at 1 mg/kg, iv measured upto 24 hrs; assay type: ADME, organism-based; parameters: dose 1 mg/kg, time < 24 hrs, route iv; conditions: in vivo; for AUC(0-t) at 24 h: ICR (CD-1)
[3] = Observed AUC infinity in ICR (CD-1) mouse at 1 mg/kg, iv measured upto 24 hrs; assay type: ADME, organism-based; parameters: dose 1 mg/kg, time < 24 hrs, route iv; conditions: in vivo; for AUC(0-inf): ICR (CD-1)
[4] = Observed clearance in ICR (CD-1) mouse at 1 mg/kg, iv measured upto 24 hrs; assay type: ADME, organism-based; parameters: dose 1 mg/kg, time < 24 hrs, route iv; conditions: in vivo
[5] = Observed MRT infinity in ICR (CD-1) mouse at 1 mg/kg, iv measured upto 24 hrs; assay type: ADME, organism-based; conditions: in vivo
[6] = Observed volume of distribution at steady state in ICR (CD-1) mouse at 1 mg/kg, iv measured upto 24 hrs; assay type: ADME, organism-based; conditions: in vivo, read-out: Vdss
[7] = Acute toxicity in iv dosed SPF ICR mouse assessed as maximum tolerated measured for 14 days; assay type: organism-based; conditions: in vivo, dose 30 mg/kg, time 14 day
[8] = tested on: Candida albicans; experiment: Antifungal activity against Candida albicans ATTCC 14053 infected in SPF Kunming mouse assessed as increase in mouse survival pre-infected for 1 hr followed by compound addition and measured after 7 to 14 days; assay type: functional; conditions: time 7-14 day
[9] = Therapeutic index ratio of MTD for acute toxicity in iv dosed SPF ICR mouse to ED50 for antifungal activity against Candida albicans ATTCC 14053 infected in SPF kunming mouse; assay type: organism-based; conditions: in vivo, read-out: TI
[10] = tested on: Lipid bilayer; experiment: Induction of membrane disruption in inner membrane mimic POPC/ergosterol (10:1) large unilamellar vesicles assessed as change in morphology by transmission electron microscopic analysis; assay type: cell membranes
[11] = tested on: Lipid bilayer; experiment: Induction of membrane disruption in inner membrane mimic POPC/ergosterol (10:1) large unilamellar vesicles assessed as change in liposomal integrity by transmission electron microscopic analysis; assay type: cell membranes
[12] = tested on: Candida albicans; experiment: Antifungal activity against Candida albicans assessed as inhibition of fungal growth measured after 48 hrs by CLSI based agar dilution method; assay type: functional
[13] = tested on: Pichia kudriavzevii; experiment: Antifungal activity against Candida krusei assessed as inhibition of fungal growth measured after 48 hrs by CLSI based agar dilution method; assay type: functional
[14] = tested on: Candida parapsilosis; experiment: Antifungal activity against Candida parapsilosis assessed as inhibition of fungal growth measured after 48 hrs by CLSI based agar dilution method; assay type: functional; conditions: Lodderomyces parapsilosis
[15] = tested on: Candida tropicalis; experiment: Antifungal activity against Candida tropicalis assessed as inhibition of fungal growth measured after 48 hrs by CLSI based agar dilution method; assay type: functional
[16] = tested on: Pichia kudriavzevii; experiment: Antifungal activity against Candida krusei ATCC 6258 assessed as inhibition of fungal growth measured after 48 hrs by CLSI based agar dilution method; assay type: functional
[17] = tested on: Cryptococcus neoformans; experiment: Antifungal activity against Cryptococcus neoformans ATCC 32609 assessed as inhibition of fungal growth measured after 48 hrs by CLSI based agar dilution method; assay type: functional
[18] = Hemolytic activity in human RBC measured after 1 hr; assay type: toxicity, cell-based, Erythrocyte; conditions: red blood cells (erythrocytes)
[19] = route iv, dose 1 mg/kg, time < 24 hrs, read-out: CL

C[C@@H]1[C@H](O)[C@@H](C)/C=C/C=C/C=C/C=C/C=C/C=C/C=C/[C@H](O[C@@H]2O[C@H](C)[C@@H](O)[C@H](N)[C@@H]2O)C[C@@H]2O[C@](O)(C[C@@H](O)C[C@@H](O)[C@H](O)CC[C@@H](O)C[C@@H](O)CC(=O)O[C@H]1C)C[C@H](O)[C@H]2C(=O)NCCN
half-life [1]: 17.5 h
AUC(0-t) at 24 h [2]: 11600 ng·h/mL
AUC(0-inf) [3]: 18900 ng·h/mL
clearance [4, 19]: 0.896 mL/min/kg
MRT inf [5]: 25.3 h
Vd [6]: 1.33 L/kg
MTD at 336 h [7]: 7.5 mg/kg
ED50 [8]: 0.32 mg/kg
selectivity ratio [9]: 23.4

CNCC(=O)N[C@@H]1[C@H](O)[C@H](O[C@H]2/C=C/C=C/C=C/C=C/C=C/C=C/C=C/[C@H](C)[C@@H](O)[C@@H](C)[C@H](C)OC(=O)C[C@H](O)C[C@H](O)CC[C@@H](O)[C@H](O)C[C@H](O)C[C@]3(O)C[C@H](O)[C@@H](C(=O)NCCN)[C@H](C2)O3)O[C@H](C)[C@H]1O
Activity [10]: Active
Activity [11]: Active

CCOC(=O)NNC(=O)[C@H]1[C@@H]2C[C@@H](O[C@@H]3O[C@H](C)[C@@H](O)[C@H](N)[C@@H]3O)/C=C/C=C/C=C/C=C/C=C/C=C/C=C/[C@H](C)[C@@H](O)[C@@H](C)[C@H](C)OC(=O)C[C@H](O)C[C@H](O)CC[C@@H](O)[C@H](O)C[C@H](O)C[C@](O)(C[C@@H]1O)O2
MIC [12]: 0.25 µg/mL (≈ 0.247 µM)
MIC [13]: 0.25 µg/mL (≈ 0.247 µM)
MIC [14]: 2 µg/mL (≈ 1.98 µM)
MIC [15]: 2 µg/mL (≈ 1.98 µM)
MIC [16]: 0.5 µg/mL (≈ 0.495 µM)
MIC [17]: 0.06 µg/mL (≈ 0.0594 µM)
HC50 at 1 h [18]: 6.29 µM

CNCC(=O)N[C@@H]1[C@H](O)[C@H](O[C@H]2/C=C/C=C/C=C/C=C/C=C/C=C/C=C/[C@H](C)[C@@H](O)[C@@H](C)[C@H](C)OC(=O)C[C@H](O)C[C@H](O)CC[C@@H](O)[C@H](O)C[C@H](O)C[C@]3(O)C[C@H](O)[C@@H](C(=O)N4CCC(O)CC4)[C@H](C2)O3)O[C@H](C)[C@H]1O
MIC [12]: 0.5 µg/mL (≈ 0.464 µM)
MIC [13]: 2 µg/mL (≈ 1.85 µM)
MIC [14]: 2 µg/mL (≈ 1.85 µM)
MIC [15]: 2 µg/mL (≈ 1.85 µM)
MIC [16]: 4 µg/mL (≈ 3.71 µM)
MIC [17]: 0.25 µg/mL (≈ 0.232 µM)
HC50 at 1 h [18]: 6.3 µM

C[C@@H]1[C@H](O)[C@@H](C)/C=C/C=C/C=C/C=C/C=C/C=C/C=C/[C@H](O[C@@H]2O[C@H](C)[C@@H](O)[C@H](N)[C@@H]2O)C[C@@H]2O[C@](O)(C[C@@H](O)C[C@@H](O)[C@H](O)CC[C@@H](O)C[C@@H](O)CC(=O)O[C@H]1C)C[C@H](O)[C@H]2C(=O)O [AMPHOTERICIN B]
MIC [12]: 0.5 µg/mL (≈ 0.541 µM)
MIC [14]: 0.25 µg/mL (≈ 0.271 µM)
MIC [15]: 1 µg/mL (≈ 1.08 µM)
HC50 at 1 h [18]: 4.13 µM
half-life [1]: 19.2 h
AUClast ([2]; 24 h): 2488 ng·h/mL
AUC ([3]; 24 h): 4476 ng·h/mL
clearance ([4]; iv, 1 mg/kg, read-out: AUC): 4.02 mL/min/kg
MRT inf [5]: 28.8 h
Vd [6]: 6.42 L/kg
MTD at 336 h [7]: 2.01 mg/kg
ED50 [8]: 1.08 mg/kg

CNCC(=O)N[C@@H]1[C@H](O)[C@H](O[C@H]2/C=C/C=C/C=C/C=C/C=C/C=C/C=C/[C@H](C)[C@@H](O)[C@@H](C)[C@H](C)OC(=O)C[C@H](O)C[C@H](O)CC[C@@H](O)[C@H](O)C[C@H](O)C[C@]3(O)C[C@H](O)[C@@H](C(=O)N4CCN(C(C)(C)CO)CC4)[C@H](C2)O3)O[C@H](C)[C@H]1O
MIC [12]: 1 µg/mL (≈ 0.881 µM)
MIC [13]: 1 µg/mL (≈ 0.881 µM)
MIC [14]: 1 µg/mL (≈ 0.881 µM)
MIC [15]: 1 µg/mL (≈ 0.881 µM)
MIC [16]: 4 µg/mL (≈ 3.52 µM)
MIC [17]: 1 µg/mL (≈ 0.881 µM)
HC50 at 1 h [18]: 50.7 µM
half-life [1]: 16.4 h
AUC(0-t) at 24 h [2]: 10700 ng·h/mL
AUC(0-inf) [3]: 17700 ng·h/mL
clearance [4, 19]: 0.95 mL/min/kg
MRT inf [5]: 25.4 h
Vd [6]: 1.44 L/kg
